pIC50: −log10 of the molar value.
Target: Cyclin-H/Cyclin-dependent kinase 7 (Homo sapiens, UniProt P51946+P50613)
Experiment: Inhibition of CDK7/Cyclin H (unknown origin)

Chain of Cyclin-H/Cyclin-dependent kinase 7 (P51946 whole entry): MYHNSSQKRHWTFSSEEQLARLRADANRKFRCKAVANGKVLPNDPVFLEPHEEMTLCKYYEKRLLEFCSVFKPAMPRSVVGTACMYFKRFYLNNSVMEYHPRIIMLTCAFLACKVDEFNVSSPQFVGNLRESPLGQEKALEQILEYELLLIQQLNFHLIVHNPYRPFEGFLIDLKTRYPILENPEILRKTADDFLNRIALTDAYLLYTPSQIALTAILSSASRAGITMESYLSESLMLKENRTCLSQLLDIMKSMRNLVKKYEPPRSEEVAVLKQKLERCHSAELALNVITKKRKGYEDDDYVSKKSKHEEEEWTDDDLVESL
Chain of Cyclin-H/Cyclin-dependent kinase 7 (P50613 whole entry): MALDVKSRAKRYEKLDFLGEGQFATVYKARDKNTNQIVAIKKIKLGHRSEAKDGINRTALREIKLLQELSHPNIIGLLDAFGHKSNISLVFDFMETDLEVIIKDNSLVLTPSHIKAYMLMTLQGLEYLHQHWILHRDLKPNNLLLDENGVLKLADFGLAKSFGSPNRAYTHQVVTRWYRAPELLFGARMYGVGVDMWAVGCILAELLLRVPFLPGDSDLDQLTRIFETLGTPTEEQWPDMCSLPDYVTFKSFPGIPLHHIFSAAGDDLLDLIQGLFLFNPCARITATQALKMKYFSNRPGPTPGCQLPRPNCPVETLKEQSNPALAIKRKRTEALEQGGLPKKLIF

Row | SMILES | pIC50
1 | C=CC(=O)Nc1ccc(C(=O)N2CCC[C@@H](Nc3ncc(Cl)c(-c4c[nH]c5ccccc45)n3)C2)nc1 | 6.04
2 | CN(C)C/C=C/C(=O)Nc1ccc(N2CCC[C@@H](Nc3ncc(Cl)c(-c4c[nH]c5ccccc45)n3)C2)nc1 | 7.13
3 | CN(C)C/C=C/C(=O)Nc1ccc(O[C@@H]2CCC[C@@H](Nc3ncc(Cl)c(-c4c[nH]c5ccccc45)n3)C2)c(F)c1 | 6.57
4 | CN(C)C/C=C/C(=O)Nc1ccc(C(=O)N2CCC[C@@H](Nc3ncc(Cl)c(-c4c[nH]c5ccccc45)n3)C2)nc1 | 6.40

Source: BindingDB's records for doi:10.1016/j.ejmech.2021.113481 (Harvard Medical School, 2021)
